Assay results taken from US20190374518A1, “TREATMENT OF MIGRAINE” (Allergan Pharmaceuticals International Limited, priority 2018, published 2019).

How the values were obtained:
[1] = Study B: randomized, double-blind, placebo-controlled study, acute treatment of a single migraine attack; format: in vivo, human; conditions: for Absence of Most-Bothersome Migraine Associated Symptom at 2 hours after the initial dose: Odds Ratio (95% CI) / Pain Freedom at 2 hours after the initial dose: Odds Ratio (95% CI): mITT
Method: (§1) Study A and Study B were multicenter, randomized, double-blind, placebo-controlled, parallel-group, studies designed to evaluate the efficacy, safety, and tolerability of three doses of ubrogepant (25 mg, 50 mg and 100 mg) compared to placebo for the acute treatment of a single migraine attack. In Study A, patients were randomized (1:1:1) to 1 of 3 treatment groups: placebo, ubrogepant 50 mg, or ubrogepant 100 mg. In Study B, patients were randomized (1:1:1) to 1 of 3 treatment groups: placebo, ubrogepant 25 mg, or ubrogepant 50 mg. Patients were stratified by their previous response to triptans (triptan responder, triptan insufficient responder, triptan naïve) and their current use of prophylactic concomitant medication for migraine (yes/no). To be randomized, eligible patients had to be 18 to 75 years of age (inclusive), have a history of migraine with or without aura for at least 1 year consistent with a diagnosis according to the International Classification of Headache Disorders criteria, 3rd edition, beta version, and had to have experienced between 2 to 8 migraine attacks with moderate to severe headache pain in each of the 3 months before Screening (Visit 1). Patients who had clinically significant hematologic, endocrine, cardiovascular, cerebrovascular, pulmonary, renal, hepatic, gastrointestinal, or neurologic disease were excluded from the study. Study patients randomized to a treatment group had up to 60 days to treat a single qualifying migraine attack of moderate or severe pain intensity at home. In Study A, a total of 1672 patients were randomized to double-blind treatment (ITT population), and 1436 patients took at least 1 dose of double-blind IP (safety population). A total of 1327 treated patients recorded a baseline migraine headache severity measurement and at least 1 postdose migraine headache severity or migraine-associated symptom measurement within 2 hours after dosing (mITT population). In Study B, a total of 1,686 patients were randomized to double-blind treatment (ITT population), and 1,465 patients took at least 1 dose of double-blind IP (safety population). A total of 1355 treated patients recorded a baseline migraine headache severity measurement and at least 1 postdose migraine headache severity or migraine-associated symptom measurement within 2 hours after dosing (mITT population). The coprimary efficacy endpoints for the United States were pain freedom (PF) at 2 hours after the initial dose, defined as a reduction in headache severity from moderate/severe at baseline to no pain, at 2 hours after the initial dose and absence of the most bothersome migraine-associated symptom at 2 hours after the initial dose. The most bothersome migraine-associated symptom was identified at baseline for each patient.

[2] = Study A: randomized, double-blind, placebo-controlled study, acute treatment of a single migraine attack; format: in vivo, human; conditions: for Absence of Most-Bothersome Migraine Associated Symptom at 2 hours after the initial dose: Odds Ratio (95% CI) / Pain Freedom at 2 hours after the initial dose: Odds Ratio (95% CI): mITT
Method: as §1

[3] = 25 mg vs placebo, Triptan Insufficient Responder
[4] = 25 mg vs placebo, Triptan Responder
[5] = 25 mg, Triptan Insufficient Responder, N1=100, mITT
[6] = 50 mg vs placebo, Triptan Insufficient Responder
[7] = 50 mg vs placebo, Triptan Naïve
[8] = 50 mg vs placebo, Triptan Responder
[9] = 50 mg, Triptan Insufficient Responder, N1=110, mITT
[10] = 50 mg, Triptan Responder, N1=160, mITT
[11] = 100 mg vs placebo, Triptan Insufficient Responder
[12] = 100 mg vs placebo, Triptan Naïve
[13] = 100 mg vs placebo, Triptan Responder
[14] = 100 mg, Triptan Insufficient Responder, N1=126, mITT
[15] = 100 mg, Triptan Naïve, N1=149, mITT
[16] = 100 mg, Triptan Responder, N1=173, mITT

Question: With `C[C@@H]1[C@H](c2ccccc2)C[C@H](NC(=O)c2cnc3c(c2)C[C@@]2(C3)C(=O)Nc3ncccc32)C(=O)N1CC(F)(F)F` [Ubrogepant, ubrogepant] as the compound, how does the “Absence of Most-Bothersome Migraine Associated Symptom at 2 hours after the initial dose: Odds Ratio (95% CI)” value (“Absence … Odds Ratio (95% CI)” below) [1, 3] read?
Answer: Its value is 1.65.

Question: And the “Pain Freedom at 2 hours after the initial dose: Odds Ratio (95% CI)” value (“Pain Freedom at 2 hours … Odds Ratio (95% CI)” below) [1, 3]?
Answer: The value was 1.81.

Question: What about the “Absence … Odds Ratio (95% CI)” value ([1]; 25 mg vs placebo, Triptan Naive) of the same compound?
Answer: Its value is 1.32.

Question: And the “Pain Freedom at 2 hours … Odds Ratio (95% CI)” value ([1]; 25 mg vs placebo, Triptan Naïve)?
Answer: The value was 1.50.

Question: What about the “Absence … Odds Ratio (95% CI)” value [1, 4] of the same compound?
Answer: Its value is 1.26.

Question: And the “Pain Freedom at 2 hours … Odds Ratio (95% CI)” value [1, 4]?
Answer: The value was 1.52.

Question: What about the “Absence of Most-Bothersome Migraine Associated Symptom at 2 hours after the initial dose: Responder rate (in parentheses)” value (from here on “Absence … (in parentheses)”) [1, 5] of the same compound?
Answer: The value was “(37.0)”.

Question: And the “Pain Freedom at 2 hours after the initial dose: Responder rate (in parentheses)” value (“Pain Freedom at 2 hours … (in parentheses)” for short) [1, 5]?
Answer: Its value is “(18.0)”.

Question: And the “Absence … (in parentheses)” value ([1]; 25 mg, Triptan Naive, N1=184, mITT)?
Answer: Its value is “(34.2)”.

Question: And the “Pain Freedom at 2 hours … (in parentheses)” value ([1]; 25 mg, Triptan Naïve, N1=184, mITT)?
Answer: Its value is “(25.5)”.

Question: And the “Absence … (in parentheses)” value ([1]; 25 mg, Triptan Responder, N1=150, mITT)?
Answer: The value was “(32.0)”.

Question: And the “Pain Freedom at 2 hours … (in parentheses)” value ([1]; 25 mg, Triptan Responder, N1=151, mITT)?
Answer: Its value is “(16.6)”.

Question: What about the “Absence … Odds Ratio (95% CI)” value [1, 6] of the same compound?
Answer: Its value is 1.72.

Question: What about the “Pain Freedom at 2 hours … Odds Ratio (95% CI)” value [1, 6] of the same compound?
Answer: The value was 1.97.

Question: What about the “Absence … Odds Ratio (95% CI)” value ([1]; 50 mg vs placebo, Triptan Naive) of the same compound?
Answer: The value was 1.54.

Question: And the “Pain Freedom at 2 hours … Odds Ratio (95% CI)” value [1, 7]?
Answer: Its value is 1.22.

Question: And the “Absence … Odds Ratio (95% CI)” value [1, 8]?
Answer: The value was 1.76.

Question: What about the “Pain Freedom at 2 hours … Odds Ratio (95% CI)” value [1, 8] of the same compound?
Answer: Its value is 2.19.

Question: What about the “Absence … (in parentheses)” value [1, 9] of the same compound?
Answer: Its value is “(38.2)”.

Question: And the “Pain Freedom at 2 hours … (in parentheses)” value [1, 9]?
Answer: Its value is “(19.1)”.

Question: What about the “Absence … (in parentheses)” value ([1]; 50 mg, Triptan Naive, N1=193, mITT) of the same compound?
Answer: The value was “(39.4)”.

Question: What about the “Pain Freedom at 2 hours … (in parentheses)” value ([1]; 50 mg, Triptan Naïve, N1=194, mITT) of the same compound?
Answer: Its value is “(23.2)”.

Question: What about the “Absence … (in parentheses)” value [1, 10] of the same compound?
Answer: The value was “(38.8)”.

Question: And the “Pain Freedom at 2 hours … (in parentheses)” value [1, 10]?
Answer: The value was “(21.9)”.

Question: And the “Absence … Odds Ratio (95% CI)” value [2, 6]?
Answer: The value was 1.80.

Question: And the “Pain Freedom at 2 hours … Odds Ratio (95% CI)” value [2, 6]?
Answer: Its value is 2.41.

Question: What about the “Absence … Odds Ratio (95% CI)” value [2, 7] of the same compound?
Answer: Its value is 1.48.

Question: And the “Pain Freedom at 2 hours … Odds Ratio (95% CI)” value [2, 7]?
Answer: Its value is 1.60.

Question: And the “Absence … Odds Ratio (95% CI)” value [2, 8]?
Answer: Its value is 1.85.

Question: What about the “Pain Freedom at 2 hours … Odds Ratio (95% CI)” value [2, 8] of the same compound?
Answer: The value was 1.86.

Question: And the “Absence … (in parentheses)” value ([2]; 50 mg, Triptan Insufficient Responder, N1=116, mITT)?
Answer: The value was “(33.6)”.

Question: What about the “Pain Freedom at 2 hours … (in parentheses)” value ([2]; 50 mg, Triptan Insufficient Responder, N1=118, mITT) of the same compound?
Answer: The value was “(13.6)”.

Question: What about the “Absence … (in parentheses)” value ([2]; 50 mg, Triptan Naïve, N1=132, mITT) of the same compound?
Answer: Its value is “(42.4)”.

Question: What about the “Pain Freedom at 2 hours … (in parentheses)” value ([2]; 50 mg, Triptan Naïve, N1=133, mITT) of the same compound?
Answer: Its value is “(24.8)”.

Question: And the “Pain Freedom at 2 hours … (in parentheses)” value ([2]; 50 mg, Triptan Responder, N1=171, mITT)?
Answer: The value was “(18.7)”.

Question: What about the “Absence … (in parentheses)” value ([2]; 50 mg, Triptan Responder, N1=172, mITT) of the same compound?
Answer: The value was “(39.0)”.

Question: What about the “Absence … Odds Ratio (95% CI)” value [2, 11] of the same compound?
Answer: Its value is 1.50.

Question: What about the “Pain Freedom at 2 hours … Odds Ratio (95% CI)” value [2, 11] of the same compound?
Answer: Its value is 2.49.

Question: And the “Absence … Odds Ratio (95% CI)” value [2, 12]?
Answer: Its value is 1.22.

Question: And the “Pain Freedom at 2 hours … Odds Ratio (95% CI)” value [2, 12]?
Answer: The value was 1.26.

Question: And the “Absence … Odds Ratio (95% CI)” value [2, 13]?
Answer: The value was 2.18.

Question: What about the “Pain Freedom at 2 hours … Odds Ratio (95% CI)” value [2, 13] of the same compound?
Answer: The value was 2.89.

Question: And the “Absence … (in parentheses)” value [2, 14]?
Answer: Its value is “(30.2)”.

Question: And the “Pain Freedom at 2 hours … (in parentheses)” value [2, 14]?
Answer: Its value is “(14.3)”.

Question: And the “Absence … (in parentheses)” value [2, 15]?
Answer: The value was “(37.6)”.

Question: And the “Pain Freedom at 2 hours … (in parentheses)” value [2, 15]?
Answer: Its value is “(20.8)”.

Question: What about the “Absence … (in parentheses)” value [2, 16] of the same compound?
Answer: The value was “(43.4)”.

Question: And the “Pain Freedom at 2 hours … (in parentheses)” value [2, 16]?
Answer: Its value is “(26.6)”.
